Results reported in the CheMixHub ionic liquid set.

Assay: xn = mol fraction of the nth substance listed

CC(O)C(=O)[O-].CCC[N+]1(C)CCN(C)CC1 + CC#N
298 K, 101 kPa
Conditions	electrical conductivity [S/m]
x2 = 0.824	1.63
x2 = 0.848	1.79
x2 = 0.879	1.94

C[NH+](C)C.O=S(=O)([N-]S(=O)(=O)C(F)(F)F)C(F)(F)F + CC#N
101 kPa
Conditions	electrical conductivity [S/m]
298.15 K, x2 = 0.66	4.82
303.15 K, x2 = 0.86	6.87

Cn1cc[n+](CCCN)c1.F[B-](F)(F)F + CC#N
electrical conductivity [S/m], 101 kPa, frequency 3 MHz
Conditions	x1 = 0.1001	x1 = 0.2005	x1 = 0.3	x1 = 0.399	x1 = 0.4996	x1 = 0.598	x1 = 0.6975	x1 = 0.7983	x1 = 0.8987	x1 = 1
288.15 K	1.69	1.25	0.915	0.614	0.416	0.281	0.168	0.088	0.044	0.011
293.15 K	1.94	1.49	1.103	0.749	0.519	0.35	0.211	0.117	0.062	0.018
298.15 K	2.243	1.742	1.309	0.906	0.625	0.427	0.267	0.153	0.085	0.026
303.15 K	2.56	2.036	1.535	1.08	0.746	0.515	0.329	0.195	0.112	0.04
308.15 K	2.89	2.343	1.79	1.27	0.874	0.611	0.402	0.243	0.144	0.055
313.15 K	3.24	2.68	2.06	1.48	1.021	0.721	0.487	0.301	0.182	0.072
318.15 K	3.622	3.05	2.36	1.7	1.17	0.844	0.58	0.364	0.225	0.094
323.15 K	4.04	3.46	2.68	1.938	1.344	0.982	0.692	0.437	0.276	0.124

viscosity [mPa·s], 101 kPa
Conditions	x1 = 0.1001	x1 = 0.2005	x1 = 0.3	x1 = 0.399	x1 = 0.4996	x1 = 0.598	x1 = 0.6975	x1 = 0.7983	x1 = 0.8987	x1 = 1
288.15 K	18.13	36	55.18	75.79	98.1	121.5	147	174.5	202.6	231.2
293.15 K	13.81	27.35	42.52	58.84	76.44	95.92	116.8	139.6	161.9	185.4
298.15 K	10.64	21.28	33.13	46.19	60.38	76.12	93.68	112	130.2	149.6
303.15 K	8.386	16.73	26.24	36.56	48.34	61.21	75.42	90.05	104.8	121.1
308.15 K	6.804	13.48	21.1	29.46	38.98	49.81	61.47	74.04	86.51	100.2
313.15 K	5.588	11.04	17.16	24.04	32.08	40.8	50.47	61.67	71.62	83.06
318.15 K	4.761	9.062	14.08	19.9	26.59	33.85	41.94	51.42	59.82	69.26
323.15 K	4.016	7.65	11.81	16.54	22.05	28.29	35.74	43.45	50.53	58.45

CC(=O)[O-].CCCC[P+](CCCC)(CCCC)CCCC + CC(=O)[O-].CCCC[n+]1ccn(C)c1
101 kPa
Conditions	viscosity [mPa·s]
313.15 K, x2 = 0.751	246
323.15 K, x2 = 0.5018	169.2

CC(=O)[O-].Cn1cc[nH+]c1 + CC(=O)[O-].C[NH+]1CCCC1
Conditions	viscosity [mPa·s]
298.15 K, 100 kPa, x1 = 1	6.22

CCOS(=O)(=O)[O-].CC[n+]1ccn(C)c1 + CC(=O)c1ccccc1
100 kPa, x2 = 0
Conditions	viscosity [mPa·s]
313.15 K	40
333.15 K	20.4

CC[n+]1ccn(C)c1.F[P-](F)(F)(F)(F)F + CC(C)C[C@H](N)C(=O)O + O
100 kPa
Conditions	electrical conductivity, 298.15 K [S/m]	electrical conductivity, 303.15 K [S/m]	electrical conductivity, 308.15 K [S/m]	viscosity, 298.15 K [mPa·s]	viscosity, 303.15 K [mPa·s]	viscosity, 308.15 K [mPa·s]
x2 = 0.0001802, x1 = 1.802e-05	0.011	0.0123	0.0135	0.925	0.857	0.783
x2 = 0.0001803, x1 = 5.405e-05	0.0293	0.0326	0.0354	0.94	0.862	0.788
x2 = 0.0001804, x1 = 9.008e-05	0.0464	0.0517	0.0561	0.955	0.866	0.793
x2 = 0.0004522, x1 = 1.801e-05	0.0109	0.0122	0.0133	0.933	0.864	0.791
x2 = 0.0004524, x1 = 5.403e-05	0.0295	0.0328	0.0353	0.946	0.868	0.795
x2 = 0.0004526, x1 = 9.005e-05	0.0461	0.0514	0.0557	0.962	0.876	0.802
x2 = 0.0007258, x1 = 1.801e-05	0.0111	0.0122	0.0135	0.94	0.872	0.799
x2 = 0.0007262, x1 = 5.402e-05	0.0293	0.0326	0.0351	0.957	0.879	0.805
x2 = 0.0007265, x1 = 9.003e-05	0.0458	0.051	0.0558	0.973	0.885	0.812
x2 = 0.0009976, x1 = 1.8e-05	0.0106	0.0118	0.013	0.947	0.88	0.806
x2 = 0.000998, x1 = 5.4e-05	0.0288	0.032	0.0348	0.964	0.885	0.811
x2 = 0.0009985, x1 = 9e-05	0.0451	0.0505	0.055	0.981	0.895	0.82
x2 = 0.001273, x1 = 1.8e-05	0.011	0.0122	0.0134	0.955	0.888	0.814
x2 = 0.001273, x1 = 5.399e-05	0.0285	0.0318	0.0345	0.973	0.895	0.821
x2 = 0.001274, x1 = 8.998e-05	0.0449	0.0502	0.0545	0.991	0.904	0.827
x2 = 0.001546, x1 = 1.799e-05	0.0112	0.0123	0.0136	0.961	0.895	0.822
x2 = 0.001547, x1 = 5.397e-05	0.0283	0.0315	0.0344	0.982	0.905	0.831
x2 = 0.001547, x1 = 8.995e-05	0.0445	0.0493	0.0541	1	0.912	0.841

CC[n+]1ccn(CCOC)c1.N#C[S-] + CC(C)O
viscosity [mPa·s], 100 kPa
Conditions	x1 = 0.1	x1 = 0.1998	x1 = 0.3234	x1 = 0.3998	x1 = 0.5003	x1 = 0.6	x1 = 0.697	x1 = 0.8002	x1 = 0.8991	x1 = 1
288.15 K	4.25	6.2	10.24	15.05	19.9	28.1	38.6	54.1	72.5	93.1
293.15 K	3.66	5.32	8.77	12.96	16.8	23	31.1	42.7	56.8	70.8
298.15 K	3.18	4.62	7.6	11.21	14.12	19.3	25.7	34.4	45	55.8
303.15 K	2.79	4.05	6.64	9.42	11.99	16.48	21.6	28.2	36.3	44.3
308.15 K	2.45	3.58	5.82	8.25	10.28	14.1	18.7	23.5	29.9	36
313.15 K	2.17	3.18	5.17	7.23	8.91	12.18	15.97	19.8	24.9	29.7
318.15 K	1.93	2.84	4.6	6.27	7.78	10.62	13.55	17.18	21.1	24.9
